# Results published in US7772263B2, “Compounds for the treatment of inflammatory disorders” (Schering Corporation, priority 2006, dated 2010).
# Where two headings read alike, the source gives them in different places.
# Target: T1, purified catalytic domain of recombinant human TACE (rhTACEc) (Homo sapiens, UniProt P78536, N452Q/S266A)
# T1 construct: rhTACEc, Residue 215 to 477 with two mutation (S266A and N4520) and a 6×His tail; 6xHis (C); made in house; host or cells: baculovirus/Hi5 insect cells
# Experiment: TACE kinetic assay, cleavage of internally quenched fluorescent peptide substrate SPDL-3
# Format: biochemical
# [1] = TACE inhibition, Table 1001, read-out: Ki Rating
# [2] = rhTACEc 70 pM, 30 μM SPDL-3, 90 min pre-incubation at 25° C., read-out: Ki (nM), TACE inhibitory activity
# T1 sequence (P78536 215-477 S266A/N452Q limits assumed): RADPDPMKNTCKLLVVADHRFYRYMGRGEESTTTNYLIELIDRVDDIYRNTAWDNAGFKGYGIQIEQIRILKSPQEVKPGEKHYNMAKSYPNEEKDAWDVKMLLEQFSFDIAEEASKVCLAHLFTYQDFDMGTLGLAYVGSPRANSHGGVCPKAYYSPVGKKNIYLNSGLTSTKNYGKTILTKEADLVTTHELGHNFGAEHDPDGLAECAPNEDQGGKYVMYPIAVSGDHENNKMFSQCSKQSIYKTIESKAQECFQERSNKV
Structure (SMILES),Ki [1],Ki [2]
COc1ccc2c(c1)C(=O)N(C[C@@]1(C#Cc3ccc(C4(N)CC4)nc3)NC(=O)NC1=O)C2 [Compound 414B],5 to 25 nM,
COc1ccc2c(c1)C(=O)N(C[C@@]1(C#Cc3cc(C)cc(F)c3)NC(=O)NC1=O)C2 [Compound 439],< 5 nM,
COc1ccc2c(c1)C(=O)N(C[C@@]1(C#Cc3cc(F)cc(C(F)(F)F)c3)NC(=O)NC1=O)C2 [Compound 440],< 5 nM,
COc1ccc2c(c1)C(=O)N(C[C@@]1(C#Cc3cccc4ncccc34)NC(=O)NC1=O)C2 [Compound 441],< 5 nM,
COc1ccc2c(c1)C(=O)N(C[C@@]1(C#Cc3cccc4cnccc34)NC(=O)NC1=O)C2 [Compound 442],< 5 nM,0.11 nM
COc1ccc2c(c1)C(=O)N(C[C@@]1(C#Cc3cnc4ccccc4c3)NC(=O)NC1=O)C2 [Compound 443],< 5 nM,
COc1ccc2c(c1)C(=O)N(C[C@@]1(C#Cc3ccc4c(cnn4C)c3)NC(=O)NC1=O)C2 [Compound 444],< 5 nM,
COc1ccc2c(c1)C(=O)N(C[C@@]1(C#Cc3cccc(F)c3)NC(=O)NC1=O)C2 [Compound 445],< 5 nM,
COc1ccc2c(c1)C(=O)N(C[C@@]1(C#Cc3cccc(Cl)c3)NC(=O)NC1=O)C2 [Compound 446],< 5 nM,
COc1ccc2c(c1)C(=O)N(C[C@@]1(C#Cc3cccc(C#N)c3)NC(=O)NC1=O)C2 [Compound 447],< 5 nM,
COc1ccc2c(c1)C(=O)N(C[C@@]1(C#Cc3cc(F)cc(F)c3)NC(=O)NC1=O)C2 [Compound 448],< 5 nM,
COc1ccc2c(c1)C(=O)N(C[C@@]1(C#Cc3cc(Cl)cc(Cl)c3)NC(=O)NC1=O)C2 [Compound 449],< 5 nM,
COc1ccc2c(c1)C(=O)N(C[C@@]1(C#Cc3cncnc3)NC(=O)NC1=O)C2 [Compound 450],< 5 nM,
COc1ccc2c(c1)C(=O)N(C[C@@]1(C#Cc3cccc(S(C)(=O)=O)c3)NC(=O)NC1=O)C2 [Compound 451],< 5 nM,
COc1ccc2c(c1)C(=O)N(C[C@@]1(C#Cc3ccc(Cl)c(F)c3)NC(=O)NC1=O)C2 [Compound 452],< 5 nM,
COc1ccc2c(c1)C(=O)N(C[C@@]1(C#Cc3cnc(N)nc3)NC(=O)NC1=O)C2 [Compound 453],< 5 nM,
COc1ccc2c(c1)C(=O)N(C[C@@]1(C#Cc3nccs3)NC(=O)NC1=O)C2 [Compound 454],< 5 nM,
COc1ccc2c(c1)C(=O)N(C[C@@]1(C#Cc3cscn3)NC(=O)NC1=O)C2 [Compound 455],< 5 nM,
COc1ccc2c(c1)C(=O)N(C[C@@]1(C#Cc3cc(F)cc(Cl)c3)NC(=O)NC1=O)C2 [Compound 456],< 5 nM,
COc1ccc2c(c1)C(=O)N(C[C@@]1(C#Cc3c(C)nn(C)c3C)NC(=O)NC1=O)C2 [Compound 457],< 5 nM,
COc1ccc2c(c1)C(=O)N(C[C@@]1(C#Cc3cc(F)cc(C#N)c3)NC(=O)NC1=O)C2 [Compound 458],< 5 nM,
COc1ccc2c(c1)C(=O)N(C[C@@]1(C#Cc3cccc(C(F)(F)F)c3)NC(=O)NC1=O)C2 [Compound 459],< 5 nM,
COc1ccc2c(c1)C(=O)N(C[C@@]1(C#Cc3ccc4nccn4c3)NC(=O)NC1=O)C2 [Compound 460],< 5 nM,
COc1ccc2c(c1)C(=O)N(C[C@@]1(C#Cc3cc(F)cc(F)c3F)NC(=O)NC1=O)C2 [Compound 461],< 5 nM,
COc1ccc2c(c1)C(=O)N(C[C@@]1(C#Cc3cc(Cl)cc(C#N)c3)NC(=O)NC1=O)C2 [Compound 462],< 5 nM,

# Further lines, results first:
Ki [1],Ki [2],Structure (SMILES)
< 5 nM,,COc1ccc2c(c1)C(=O)N(CC1(C#Cc3cnn(C)c3)NC(=O)NC1=O)C2 (centres unmarked) [Compound 312B]
< 5 nM,,COc1ccc2c(c1)C(=O)N(CC1(C#Cc3cccnc3)NC(=O)NC1=O)C2 (centres unmarked) [Compound 312]
< 5 nM,,COc1ccc2c(c1)C(=O)N(CC1(C#Cc3ccc(F)cc3F)NC(=O)NC1=O)C2 (centres unmarked) [Compound 315A]
< 5 nM,,COc1ccc2c(c1)C(=O)N(CC1(C#Cc3ccc(F)cc3)NC(=O)NC1=O)C2 (centres unmarked) [Compound 315]
< 5 nM,0.44 nM,COc1ccc2c(c1)C(=O)N(C[C@@]1(C#Cc3cccnc3)NC(=O)NC1=O)C2 [Compound 400B]
< 5 nM,,C#C[C@]1(CN2Cc3ccc(OC)cc3C2=O)NC(=O)NC1=O [Compound 401]
< 5 nM,,COc1ccc2c(c1)C(=O)N(C[C@@]1(C#Cc3cncc(-c4cnn(C)c4)c3)NC(=O)NC1=O)C2 [Compound 409C]
< 5 nM,,COc1ccc2c(c1)C(=O)N(C[C@@]1(C#Cc3cncc(N4CCCC4)c3)NC(=O)NC1=O)C2 [Compound 410B]
< 5 nM,,COc1ccc2c(c1)C(=O)N(C[C@@]1(C#Cc3ccc(F)cc3)NC(=O)NC1=O)C2 [Compound 411]
< 5 nM,,CNc1nc2ccc(C#C[C@]3(CN4Cc5ccc(OC)cc5C4=O)NC(=O)NC3=O)cc2s1 [Compound 412D]
< 5 nM,,COc1ccc2c(c1)C(=O)N(C[C@@]1(C#Cc3ccc(CN4CCCC4)nc3)NC(=O)NC1=O)C2 [Compound 413D]
< 5 nM,,COc1ccc2c(c1)C(=O)N(C[C@@]1(C#Cc3ccc[nH]c3=O)NC(=O)NC1=O)C2 [Compound 417C]
< 5 nM,,COc1ccc2c(c1)C(=O)N(C[C@@]1(C#Cc3ccc4nn(C)cc4c3)NC(=O)NC1=O)C2 [Compound 421]
< 5 nM,,COc1ccc2c(c1)C(=O)N(C[C@@]1(C#Cc3ccc4nc(C)ccc4c3)NC(=O)NC1=O)C2 [Compound 422]
< 5 nM,,COc1ccc2c(c1)C(=O)N(C[C@@]1(C#Cc3ccc4cnn(C)c4c3)NC(=O)NC1=O)C2 [Compound 423]
< 5 nM,,COc1ccc2c(c1)C(=O)N(C[C@@]1(C#Cc3ccc4cn(C)nc4c3)NC(=O)NC1=O)C2 [Compound 424]
< 5 nM,,COc1ccc2c(c1)C(=O)N(C[C@@]1(C#Cc3cncc4ccccc34)NC(=O)NC1=O)C2 [Compound 425]
< 5 nM,,COc1ccc2c(c1)C(=O)N(C[C@@]1(C#Cc3ccc(F)c(C(F)(F)F)c3)NC(=O)NC1=O)C2 [Compound 426]
< 5 nM,,COc1ccc2c(c1)C(=O)N(C[C@@]1(C#Cc3ccc(C)c(F)c3)NC(=O)NC1=O)C2 [Compound 427]
< 5 nM,,COc1ccc2c(c1)C(=O)N(C[C@@]1(C#Cc3ccc(C)c(Cl)c3)NC(=O)NC1=O)C2 [Compound 428]
< 5 nM,,COc1ccc2c(c1)C(=O)N(C[C@@]1(C#Cc3cccc(OC(F)(F)F)c3)NC(=O)NC1=O)C2 [Compound 429]
< 5 nM,,COc1ccc2c(c1)C(=O)N(C[C@@]1(C#Cc3cncc(F)c3)NC(=O)NC1=O)C2 [Compound 430]
< 5 nM,,COc1ccc2c(c1)C(=O)N(C[C@@]1(C#Cc3ccc(F)c(C)c3)NC(=O)NC1=O)C2 [Compound 432]
< 5 nM,,COc1ccc2c(c1)C(=O)N(C[C@@]1(C#Cc3ccc(F)cc3Cl)NC(=O)NC1=O)C2 [Compound 433]
< 5 nM,,COc1ccc2c(c1)C(=O)N(C[C@@]1(C#Cc3cc(F)c(F)c(OC)c3)NC(=O)NC1=O)C2 [Compound 434]
< 5 nM,,COc1ccc2c(c1)C(=O)N(C[C@@]1(C#Cc3cc(O)c(F)c(F)c3)NC(=O)NC1=O)C2 [Compound 435]
< 5 nM,,COc1ccc2c(c1)C(=O)N(C[C@@]1(C#Cc3ccc(C(F)(F)F)c(F)c3)NC(=O)NC1=O)C2 [Compound 436]
< 5 nM,,COc1ccc2c(c1)C(=O)N(C[C@@]1(C#Cc3cccc(F)c3C)NC(=O)NC1=O)C2 [Compound 437]
< 5 nM,,COc1ccc2c(c1)C(=O)N(C[C@@]1(C#Cc3cccc(Cl)c3C)NC(=O)NC1=O)C2 [Compound 438]
